Results from PubChem BioAssay AID248 (DTP/NCI, 2004).
“And” between values parts separate entries of the source, which are not always exact repeats. Identical values can stand only once. Toxic doses and inconclusive results are not listed. Cut-off read from the data, not from the text of the source: active = T/C of 150% or more; inactive = T/C below 125%.

Tested on: L1210 leukemia ip in BDF1 mice, survival T/C
Assay: NCI In Vivo Anticancer Drug Screen. Data for tumor model L1210 Leukemia (intraperitoneal) in B6D2F1 (BDF1) mice
Details: endpoint: mean survival time, higher = longer survival
Method in brief: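 Transplanted-tumor mice were given test agent; controls received vehicle only. Survival readings from the two groups were divided (treated over control).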

[1] = dose: 100.0 mg/kg/injection, schedule: Q01DX009 (ip), vehicle: saline with Tween-80
[2] = dose: 100.0 mg/kg/injection, schedule: Q04DX003 (ip), vehicle: saline with Tween-80
[3] = dose: 200.0 mg/kg/injection, schedule: Q01DX009 (ip), vehicle: saline with Tween-80
[4] = dose: 200.0 mg/kg/injection, schedule: Q04DX003 (ip), vehicle: saline with Tween-80
[5] = dose: 400.0 mg/kg/injection, schedule: Q04DX003 (ip), vehicle: saline with Tween-80
[6] = dose: 100.0 mg/kg/injection, schedule: Q01DX001 (ip), vehicle: carboxymethylcellulose (CMC)
[7] = dose: 200.0 mg/kg/injection, schedule: Q01DX001 (ip), vehicle: carboxymethylcellulose (CMC)
[8] = dose: 100.0 mg/kg/injection, schedule: Q04DX003 (ip), vehicle: saline
[9] = dose: 200.0 mg/kg/injection, schedule: Q04DX003 (ip), vehicle: saline
[10] = dose: 100.0 mg/kg/injection, schedule: Q04DX002 (ip), vehicle: saline with Tween-80
[11] = dose: 50.0 mg/kg/injection, schedule: Q01DX009 (ip), vehicle: saline with Tween-80
[12] = dose: 100.0 mg/kg/injection, schedule: Q01DX001 (ip), vehicle: saline with Tween-80
[13] = dose: 200.0 mg/kg/injection, schedule: Q01DX001 (ip), vehicle: saline with Tween-80
[14] = dose: 200.0 mg/kg/injection, schedule: Q04DX002 (ip), vehicle: saline with Tween-80
[15] = dose: 100.0 mg/kg/injection, schedule: Q01DX001 (ip), vehicle: Klucel (hydroxypropylcellulose) (HPC)
[16] = dose: 200.0 mg/kg/injection, schedule: Q01DX001 (ip), vehicle: Klucel (hydroxypropylcellulose) (HPC)
[17] = dose: 400.0 mg/kg/injection, schedule: Q01DX001 (ip), vehicle: Klucel (hydroxypropylcellulose) (HPC)
[18] = dose: 100.0 mg/kg/injection, schedule: Q04DX003 (ip), vehicle: Klucel (hydroxypropylcellulose) (HPC)
[19] = dose: 200.0 mg/kg/injection, schedule: Q04DX003 (ip), vehicle: Klucel (hydroxypropylcellulose) (HPC)
[20] = dose: 400.0 mg/kg/injection, schedule: Q04DX003 (ip), vehicle: Klucel (hydroxypropylcellulose) (HPC)
[21] = dose: 100.0 mg/kg/injection, schedule: Q01DX009 (ip), vehicle: Klucel (hydroxypropylcellulose) (HPC)
[22] = dose: 200.0 mg/kg/injection, schedule: Q01DX009 (ip), vehicle: Klucel (hydroxypropylcellulose) (HPC)

Measured: T/C

CC(C)(Cl)Cc1ccccc1
inactive: [1] 88 % of control | [2] 103 % of control | [3] 91 % of control | [4] 105 % of control | [5] 94 % of control

Cc1ccc(S(=O)(=O)F)cc1C(=O)O
inactive: [6] 96 % of control and 106 % of control | dose: 100.0 mg/kg/injection, schedule: Q01DX009 (ip), vehicle: carboxymethylcellulose (CMC) 93 % of control and 102 % of control | dose: 100.0 mg/kg/injection, schedule: Q04DX002 (ip), vehicle: gum acacia 101 % of control and 111 % of control | dose: 100.0 mg/kg/injection, schedule: Q04DX003 (ip), vehicle: carboxymethylcellulose (CMC) 93 % of control and 98 % of control | [7] 95 % of control and 100 % of control | dose: 200.0 mg/kg/injection, schedule: Q01DX009 (ip), vehicle: carboxymethylcellulose (CMC) 99 % of control and 100 % of control | dose: 200.0 mg/kg/injection, schedule: Q04DX002 (ip), vehicle: gum acacia 101 % of control and 104 % of control | dose: 200.0 mg/kg/injection, schedule: Q04DX003 (ip), vehicle: carboxymethylcellulose (CMC) 102 % of control | dose: 400.0 mg/kg/injection, schedule: Q04DX002 (ip), vehicle: gum acacia 107 % of control | dose: 400.0 mg/kg/injection, schedule: Q04DX003 (ip), vehicle: carboxymethylcellulose (CMC) 93 % of control

O=C(O)C1CCCS1(=O)=O (centres undefined)
inactive: [8] 96 % of control | [9] 94 % of control | dose: 400.0 mg/kg/injection, schedule: Q04DX003 (ip), vehicle: saline 88 % of control

O=C1Nc2c(ccc3ccccc23)/C1=C/c1ccccc1
inactive: [2] 100 % of control | [4] 100 % of control | [5] 97 % of control

CCN(CC)CCN1C(=O)[C@H]2CC=CC[C@H]2C1=O
inactive: dose: 44.0 mg/kg/injection, schedule: Q01DX Z (ip), vehicle: saline 111 % of control | dose: 66.0 mg/kg/injection, schedule: Q01DX Z (ip), vehicle: saline 100 % of control | dose: 100.0 mg/kg/injection, schedule: Q01DX Z (ip), vehicle: saline 98 % of control

CNC(=O)NC(=O)C(C)(C)Oc1ccc(Cl)cc1
inactive: [8] 97 % of control | [9] 94 % of control

CCCCN(CCCC)C(=N)C(=N)N(CCCC)CCCC
inactive: dose: 50.0 mg/kg/injection, schedule: Q04DX002 (ip), vehicle: saline with Tween-80 100 % of control | [10] 100 % of control

CCS(=O)(=O)c1ccc(NC(=O)OC2CCCC2)cc1
inactive: dose: 100.0 mg/kg/injection, schedule: Q01DX001 (ip), vehicle: other 100 % of control | dose: 200.0 mg/kg/injection, schedule: Q01DX001 (ip), vehicle: other 96 % of control | dose: 400.0 mg/kg/injection, schedule: Q01DX001 (ip), vehicle: other 89 % of control

c1cc2cccc3c2c(c1)c1sc2c4cccc5cccc(c54)c2c31
inactive: [1] 100 % of control | [2] 101 % of control | [3] 92 % of control | [4] 90 % of control | dose: 400.0 mg/kg/injection, schedule: Q01DX009 (ip), vehicle: saline with Tween-80 89 % of control | [5] 94 % of control

Cc1ccc2cccc(CC(=O)NN)c2c1
inactive: dose: 50.0 mg/kg/injection, schedule: Q01DX001 (ip), vehicle: saline with Tween-80 92 % of control | [11] 102 % of control | dose: 50.0 mg/kg/injection, schedule: Q04DX003 (ip), vehicle: saline with Tween-80 92 % of control | [12] 92 % of control | [1] 102 % of control | [10] 93 % of control | [2] 90 % of control | [13] 103 % of control | [3] 111 % of control | [14] 98 % of control | [4] 89 % of control

CCN(CCC#N)C(=S)Nc1ccc(C)c(C)c1
inactive: [10] 89 % of control | [14] 108 % of control | dose: 400.0 mg/kg/injection, schedule: Q04DX002 (ip), vehicle: saline with Tween-80 86 % of control

C/C(=C\C(=O)O)CBr
inactive: [11] 93 % of control | [1] 86 % of control

CSc1ccc(NC(=O)NCCCCCCNC(=O)Nc2ccc(SC)cc2)cc1
inactive: [11] 93 % of control | [1] 96 % of control | [3] 90 % of control

CC(CCl)=C(B1OC(C)(C)C(C)(C)O1)B1OC(C)(C)C(C)(C)O1
inactive: [15] 110 % of control | [16] 94 % of control | [17] 92 % of control

O=C(c1ccccc1)c1cc(CN(C2CCCCC2)C2CCCCC2)c(O)cc1O
inactive: dose: 100.0 mg/kg/injection, schedule: Q01DX001 (ip), vehicle: saline 90 % of control | dose: 200.0 mg/kg/injection, schedule: Q01DX001 (ip), vehicle: saline 91 % of control | dose: 400.0 mg/kg/injection, schedule: Q01DX001 (ip), vehicle: saline 96 % of control

c1ccc2c[n+](C[n+]3ccc4ccccc4c3)ccc2c1
inactive: [8] 103 % of control | [9] 105 % of control

O=[N+]([O-])c1cccc(/C=C/S(=O)(=O)c2ccccc2)c1
inactive: [15] 107 % of control | [18] 103 % of control | [16] 95 % of control | [19] 103 % of control | [17] 104 % of control | [20] 100 % of control

CNCCOC
inactive: dose: 100.0 mg/kg/injection, schedule: Q04DX002 (ip), vehicle: saline 98 % of control

CC(=O)Nc1ccc2c(c1)C(C)c1ccccc1-2 (centres undefined)
inactive: [6] 89 % of control | [7] 95 % of control | dose: 400.0 mg/kg/injection, schedule: Q01DX001 (ip), vehicle: carboxymethylcellulose (CMC) 93 % of control

CC12CCC(CC1)C(O)C2 (centres undefined)
inactive: [12] 104 % of control | [2] 97 % of control | [13] 101 % of control | [4] 101 % of control | dose: 400.0 mg/kg/injection, schedule: Q01DX001 (ip), vehicle: saline with Tween-80 98 % of control | [5] 87 % of control

OCc1cc2ccccc2cc1O
inactive: [21] 97 % of control | [18] 97 % of control | [22] 106 % of control | [19] 94 % of control | dose: 400.0 mg/kg/injection, schedule: Q01DX009 (ip), vehicle: Klucel (hydroxypropylcellulose) (HPC) 108 % of control | [20] 89 % of control

O=S1OCCS1 (centres undefined)
inactive: dose: 13.0 mg/kg/injection, schedule: Q01DX Z (sc), vehicle: saline 100 % of control | dose: 36.0 mg/kg/injection, schedule: Q01DX Z (sc), vehicle: saline 100 % of control

CC(C)Nc1c(C(=O)c2ccccc2)cn(C(C)C)c1-c1ccccc1
inactive: [11] 94 % of control | [1] 91 % of control | [3] 88 % of control

O=C(O)c1ccccc1-c1c2ccc(=O)c(O)c-2oc2c(O)c(O)ccc12
inactive: dose: 10.0 mg/kg/injection, schedule: Q04DX003 (ip), vehicle: other 99 % of control | dose: 20.0 mg/kg/injection, schedule: Q04DX003 (ip), vehicle: other 94 % of control | dose: 40.0 mg/kg/injection, schedule: Q04DX003 (ip), vehicle: other 98 % of control | dose: 50.0 mg/kg/injection, schedule: Q04DX003 (ip), vehicle: other 112 % of control | dose: 80.0 mg/kg/injection, schedule: Q04DX003 (ip), vehicle: other 89 % of control | dose: 100.0 mg/kg/injection, schedule: Q04DX003 (ip), vehicle: other 104 % of control | dose: 200.0 mg/kg/injection, schedule: Q04DX003 (ip), vehicle: other 124 % of control

CCN(C(=O)Nc1ccccc1F)c1cc(OC)ccc1C
inactive: [11] 91 % of control | [1] 86 % of control

Nc1ncncc1-c1ccccc1[N+](=O)[O-]
inactive: dose: 50.0 mg/kg/injection, schedule: Q01DX009 (ip), vehicle: Klucel (hydroxypropylcellulose) (HPC) 98 % of control | [21] 98 % of control | [22] 102 % of control

CC1(C)C/C(=C\c2cccc(Cl)c2)C(=O)c2ccccc21
inactive: [18] 108 % of control | [19] 106 % of control | [20] 110 % of control

O=C(Nc1ccc(C(=O)O)cc1)Nc1cc([N+](=O)[O-])ccc1F
inactive: [18] 92 % of control | [19] 94 % of control | [20] 94 % of control
